pKi: −log10 of the molar value. Like-named read-outs stand apart in the source and are kept apart here.
Experiments:
rat CB2 = molecular target: T1, rat CB2 (Rattus norvegicus, UniProt Q9QZN9); experiment: rat CB2 radioligand binding assay ([3H]CP 55,940 competition); parameters: expressed in transfected cells; host or cells: HEK293; conditions: HEK293 membranes, 0.5 nM [3H]CP 55,940; for pKi: read-out: rat CB2 (Ki); for Ki: rat CB2 (Ki, nM)
T1 sequence (Q9QZN9 1-360): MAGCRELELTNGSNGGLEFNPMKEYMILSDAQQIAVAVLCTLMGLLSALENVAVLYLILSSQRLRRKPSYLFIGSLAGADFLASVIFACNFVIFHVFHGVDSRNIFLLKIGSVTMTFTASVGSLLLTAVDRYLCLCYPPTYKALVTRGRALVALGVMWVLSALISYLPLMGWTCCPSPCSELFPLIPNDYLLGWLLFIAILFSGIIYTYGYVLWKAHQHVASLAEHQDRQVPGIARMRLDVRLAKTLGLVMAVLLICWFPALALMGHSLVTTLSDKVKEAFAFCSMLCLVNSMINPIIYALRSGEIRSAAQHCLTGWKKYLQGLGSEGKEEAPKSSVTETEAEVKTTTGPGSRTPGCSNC
Method: (§1) The CB1 and CB2 radioligand binding assays described herein are utilized to ascertain the affinity of compounds of the present application for binding to CB2 relative to CB1 receptors.
HEK293 cells stably expressing rat CB2 receptors were grown until a confluent monolayer was formed. Briefly, the cells were harvested and homogenized in TE buffer (50 mM Tris-HCl, 1 mM MgCl2, and 1 mM EDTA) using a polytron for 2×10 second bursts in the presence of protease inhibitors, followed by centrifugation at 45,000×g for 20 minutes. The final membrane pellet was re-homogenized in storage buffer (50 mM Tris-HCl, 1 mM MgCl2, and 1 mM EDTA and 10% sucrose) and frozen at −78° C. until used. Saturation binding reactions were initiated by the addition of membrane preparation (protein concentration of 20 μg/well for rat CB2) into wells of a deep well plate containing [^3H]CP 55,940 (120 Ci/mmol, a nonselective CB agonist commercially available from Tocris) in assay buffer (50 mM Tris, 2.5 mM EDTA, 5 mM MgCl2, and 0.5 mg/mL fatty acid free BSA, pH 7.4). After 45 min incubation at 30° C., binding reaction was terminated by the addition of […] of cold assay buffer followed by rapid vacuum filtration through a UniFilter-96 GF/C filter plates (pre-soaked in 1 mg/mL BSA for 2 hours). The bound activity was counted in a TopCount using Microscint-20. Saturation experiments were conducted with twelve concentrations of [^3H]CP 55,940 ranging from 0.01 to 8 nM. Competition experiments were conducted with 0.5 nM [^3H]CP 55,940 and five concentrations of displacing ligands selected from the range of 0.01 nM to 10 μM. The addition of 10 μM unlabeled CP 55,940 (Tocris, Ellisville, Mo.) was used to assess nonspecific binding.

human CB2 receptors = molecular target: T2, human CB2 receptors (Homo sapiens, UniProt P34972); experiment: human CB2 radioligand binding assay ([3H]CP 55,940 competition); conditions: HEK293 membranes, 0.5 nM [3H]CP 55,940; for pKi: read-out: human CB2 (Ki); for Ki: human CB2 (Ki, nM)
T2 construct: expressed in transfected cells; host or cells: HEK293
Method: as §1
HEK293 cells stably expressing human CB2 receptors were grown until a confluent monolayer was formed. Briefly, the cells were harvested and homogenized in TE buffer (50 mM Tris-HCl, 1 mM MgCl2, and 1 mM EDTA) using a polytron for 2×10 second bursts in the presence of protease inhibitors, followed by centrifugation at 45,000×g for 20 minutes. The final membrane pellet was re-homogenized in storage buffer (50 mM Tris-HCl, 1 mM MgCl2, and 1 mM EDTA and 10% sucrose) and frozen at −78° C. until used. Saturation binding reactions were initiated by the addition of membrane preparation (protein concentration of 5 μg/well for human CB2) into wells of a deep well plate containing [^3H]CP 55,940 (120 Ci/mmol, a nonselective CB agonist commercially available from Tocris) in assay buffer (50 mM Tris, 2.5 mM EDTA, 5 mM MgCl2, and 0.5 mg/mL fatty acid free BSA, pH 7.4). After 90 min incubation at 30° C., binding reaction was terminated by the addition of 300 μL/well of cold assay buffer followed by rapid vacuum filtration through a UniFilter-96 GF/C filter plates (pre-soaked in 1 mg/mL BSA for 2 hours). The bound activity was counted in a TopCount using Microscint-20. Saturation experiments were conducted with twelve concentrations of [^3H]CP 55,940 ranging from 0.01 to 8 nM. Competition experiments were conducted with 0.5 nM [^3H]CP 55,940 and five concentrations (0.01 nM to 10 μM) of displacing ligands. The addition of 10 μM unlabeled CP 55,940 (Tocris, Ellisville, Mo.) was used to assess nonspecific binding.

T2 sequence (P34972 whole entry): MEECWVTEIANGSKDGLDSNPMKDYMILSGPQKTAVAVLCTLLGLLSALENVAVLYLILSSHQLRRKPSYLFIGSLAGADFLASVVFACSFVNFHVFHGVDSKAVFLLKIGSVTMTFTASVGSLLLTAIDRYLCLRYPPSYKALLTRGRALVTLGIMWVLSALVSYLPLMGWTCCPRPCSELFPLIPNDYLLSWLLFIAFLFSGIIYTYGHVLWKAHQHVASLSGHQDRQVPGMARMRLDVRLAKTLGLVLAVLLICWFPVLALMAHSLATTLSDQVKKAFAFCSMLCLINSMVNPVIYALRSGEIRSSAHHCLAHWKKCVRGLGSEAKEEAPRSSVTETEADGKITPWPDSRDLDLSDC

Compound	pKi (rat CB2)	pKi (human CB2 receptors)	Ki (rat CB2)	Ki (human CB2 receptors)
CCCCn1/c(=N/C(=O)c2cc(C#N)ccc2OCC(C)(C)O)cc(C(C)(C)C)n1C [Example 108, N-[(3E)-2-butyl-5-tert-butyl-1-methyl-1,2-dihydro-3H-pyrazol-3-ylidene]-5-cyano-2-(2-hydroxy-2-methylpropoxy)benzamide]	6.54	< 6.00		
CC[C@H](O)COc1ccc(C(F)(F)F)cc1C(=O)/N=c1\cc(C(C)(C)C)n(C)n1C[C@H]1CCCO1 [Example 109, N-{(3E)-5-tert-butyl-1-methyl-2-[(2R)-tetrahydrofuran-2-ylmethyl]-1,2-dihydro-3H-pyrazol-3-ylidene}-2-{[(2S)-2-hydroxybutyl]oxy}-5-(trifluoromethyl)benzamide]			1.2 nM	1.3 nM
CCC(C)(O)COc1ccc(C(F)(F)F)cc1C(=O)/N=c1\cc(C(C)(C)C)n(C)n1C[C@H]1CCCO1 (stereo partly drawn) [Example 110, N-{(3E)-5-tert-butyl-1-methyl-2-[(2R)-tetrahydrofuran-2-ylmethyl]-1,2-dihydro-3H-pyrazol-3-ylidene}-2-(2-hydroxy-2-methylbutoxy)-5-(trifluoromethyl)benzamide]			1.6 nM	3.5 nM
CC(C)[C@H](O)COc1ccc(C(F)(F)F)cc1C(=O)/N=c1\cc(C(C)(C)C)n(C)n1C[C@H]1CCCO1 [Example 111, N-{(3E)-5-tert-butyl-1-methyl-2-[(2R)-tetrahydrofuran-2-ylmethyl]-1,2-dihydro-3H-pyrazol-3-ylidene}-2-{[(2S)-2-hydroxy-3-methylbutyl]oxy}-5-(trifluoromethyl)benzamide]			1 nM	1.8 nM
Cn1c(C(C)(C)C)c/c(=N\C(=O)c2cc(C(F)(F)F)ccc2OC[C@@H](O)C(C)(C)C)n1C[C@H]1CCCO1 [Example 112, N-{(3E)-5-tert-butyl-1-methyl-2-[(2R)-tetrahydrofuran-2-ylmethyl]-1,2-dihydro-3H-pyrazol-3-ylidene}-2-{[(2S)-2-hydroxy-3,3-dimethylbutyl]oxy}-5-(trifluoromethyl)benzamide]			1.9 nM	6.7 nM
CC(C)c1c/c(=N\C(=O)c2cc(C(F)(F)F)ccc2OCC(C)(C)O)n(CC2CCCC2)n1C [Example 114, N-[(3E)-2-(cyclopentylmethyl)-5-isopropyl-1-methyl-1,2-dihydro-3H-pyrazol-3-ylidene]-2-(2-hydroxy-2-methylpropoxy)-5-(trifluoromethyl)benzamide]		6.89	35 nM	
Cn1c(C(C)(C)C)c/c(=N\C(=O)c2cc(C(F)(F)F)ccc2OCC(C)(C)CO)n1C[C@H]1CCCO1 [Example 116, N-{(3E)-5-tert-butyl-1-methyl-2-[(2R)-tetrahydrofuran-2-ylmethyl]-1,2-dihydro-3H-pyrazol-3-ylidene}-2-(3-hydroxy-2,2-dimethylpropoxy)-5-(trifluoromethyl)benzamide]	6.70	< 6.00		
CCC(O)(CC)COc1ccc(C(F)(F)F)cc1C(=O)/N=c1\cc(C(C)(C)C)n(C)n1C[C@H]1CCCO1 [Example 117, N-{(3E)-5-tert-butyl-1-methyl-2-[(2R)-tetrahydrofuran-2-ylmethyl]-1,2-dihydro-3H-pyrazol-3-ylidene}-2-(2-ethyl-2-hydroxybutoxy)-5-(trifluoromethyl)benzamide]			69 nM	83 nM
COCCCn1/c(=N/C(=O)c2cc(C(F)(F)F)ccc2OCC(C)(C)O)cc(C(C)(C)C)n1C [Example 122, N-[(3E)-5-tert-butyl-2-(3-methoxypropyl)-1-methyl-1,2-dihydro-3H-pyrazol-3-ylidene]-2-(2-hydroxy-2-methylpropoxy)-5-(trifluoromethyl)benzamide]			27 nM	91 nM
CCCn1/c(=N/C(=O)c2cc(C(F)(F)F)ccc2OCC(C)(C)O)cc(C(C)(C)C)n1C [Example 125, N-[(3E)-5-tert-butyl-1-methyl-2-propyl-1,2-dihydro-3H-pyrazol-3-ylidene]-2-(2-hydroxy-2-methylpropoxy)-5-(trifluoromethyl)benzamide]		6.68	86 nM	
